Reference: patent US8044079B2, “Substituted oxindole derivatives, medicaments containing said derivatives and use thereof” (Abbott GmbH & Co. KG, priority 2005, dated 2011)

Molecular target: T1, human vasopressin V1b receptor (Homo sapiens, UniProt P47901)
T1 construct: expressed in transfected cells; host or cells: CHO-K1 (cell line hV1b_3H2_CHO), membrane preparation
T1 sequence (P47901 1-424): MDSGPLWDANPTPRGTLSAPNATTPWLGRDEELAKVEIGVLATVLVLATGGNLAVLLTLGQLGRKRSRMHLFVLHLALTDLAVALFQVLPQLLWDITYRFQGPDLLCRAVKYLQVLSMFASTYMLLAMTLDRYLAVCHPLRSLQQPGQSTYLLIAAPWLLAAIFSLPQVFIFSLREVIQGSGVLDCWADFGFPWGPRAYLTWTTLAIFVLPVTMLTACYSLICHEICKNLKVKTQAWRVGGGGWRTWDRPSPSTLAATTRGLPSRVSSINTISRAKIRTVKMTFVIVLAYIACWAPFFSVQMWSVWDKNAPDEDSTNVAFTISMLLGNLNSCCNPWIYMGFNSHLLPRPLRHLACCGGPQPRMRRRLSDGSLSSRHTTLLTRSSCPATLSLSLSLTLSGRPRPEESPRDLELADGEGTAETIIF
Assay: Vasopressin V1b receptor binding test
Settings: membranes of CHO-K1 cells with human V1b receptor, displacement of 1.5 nM 3H-AVP; for compounds with more than one stereogenic center the diastereomer with greater affinity
Outline: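 Radioligand displacement on membranes carrying human V1b receptor in 50 mM tris, 10 mM MgCl2, 0.1% BSA, pH 7.4, 2% DMSO final; 60 min at room temperature, nonspecific binding with 1 μM AVP. Free ligand removed by filtration, bound counted by liquid scintillation, Ki from nonlinear regression of triplicates.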

SMILES	Ki [nM]
CCN1CCN(Cc2ccc(C3(N4CCC[C@H]4c4ncco4)C(=O)N(S(=O)(=O)c4ccc(OC)cc4)c4cc(F)c(Cl)cc43)c(OC)c2)CC1 (stereo partly drawn) [Example 193, 5-Chloro-3-[4-(4-ethylpiperazin-1-ylmethyl)-2-methoxyphenyl]-6-fluoro-1-(4-methoxybenzenesulfonyl)-3-((S)-2-oxazol-2-yl-pyrrolidin-1-yl)-1,3-dihydroindol-2-one]	< 10
COc1ccc(S(=O)(=O)N2C(=O)C(c3cccc(CN(C)C)c3OC)(N3CCC[C@H]3c3ncco3)c3cc(Cl)ccc32)cc1 (stereo partly drawn) [Example 194, 5-Chloro-3-(3-dimethylaminomethyl-2-methoxyphenyl)-1-(4-methoxybenzenesulfonyl)-3-((S)-2-oxazol-2-yl-pyrrolidin-1-yl)-1,3-dihydroindol-2-one]	10 to 100
COc1ccc(S(=O)(=O)N2C(=O)C(c3cccc(CN4CCCC4)c3OC)(N3CCC[C@H]3c3ncco3)c3cc(Cl)ccc32)cc1 (stereo partly drawn) [Example 195, 5-Chloro-1-(4-methoxybenzenesulfonyl)-3-(2-methoxy-3-pyrrolidin-1-ylmethylphenyl)-3-((S)-2-oxazol-2-yl-pyrrolidin-1-yl)-1,3-dihydroindol-2-one]	100 to 1000
COc1cc(CN2CCN(CCO)CC2)ccc1C1(N2CCC[C@H]2c2ncco2)C(=O)N(S(=O)(=O)c2ccc(C#N)cc2)c2ccc(Cl)cc21 (stereo partly drawn) [Example 197, 5-Chloro-1-(4-cyanobenzenesulfonyl)-3-{4-[4-(2-hydroxyethyl)piperazin-1-ylmethyl]-2-methoxyphenyl}-3-((S)-2-oxazol-2-yl-pyrrolidin-1-yl)-2,3-dihydroindol-2-one]	10 to 100
COc1ccc(S(=O)(=O)N2C(=O)C(c3cc(CN4CCN(C)CC4)ccc3OC)(N3CCC[C@H]3c3ncco3)c3cc(Cl)c(F)cc32)cc1 (stereo partly drawn) [Example 198, 5-Chloro-6-fluoro-1-(4-methoxybenzenesulfonyl)-3-[2-methoxy-5-(4-methylpiperazin-1-ylmethyl)phenyl]-3-((S)-2-oxazol-2-yl-pyrrolidin-1-yl)-1,3-dihydroindol-2-one]	< 10
CCN1CCN(Cc2ccc(C3(N4CCC[C@H]4c4ncco4)C(=O)N(S(=O)(=O)c4ccc(OC)cc4)c4ccc(Cl)c(F)c43)c(OC)c2)CC1 (stereo partly drawn) [Example 199, 5-Chloro-3-[4-(4-ethylpiperazin-1-ylmethyl)-2-methoxyphenyl]-4-fluoro-1-(4-methoxybenzenesulfonyl)-3-((S)-2-oxazol-2-yl-pyrrolidin-1-yl)-1,3-dihydroindol-2-one]	< 10
COc1ccc(S(=O)(=O)N2C(=O)C(c3cc(CN4CCNCC4)ccc3OC)(N3CCC[C@H]3c3ncco3)c3cc(Cl)c(F)cc32)cc1 (stereo partly drawn) [Example 200, 5-Chloro-6-fluoro-1-(4-methoxybenzenesulfonyl)-3-(2-methoxy-5-piperazin-1-ylmethylphenyl)-3-((S)-2-oxazol-2-yl-pyrrolidin-1-yl)-1,3-dihydroindol-2-one]	< 10
COc1ccc(S(=O)(=O)N2C(=O)C(c3ccc(CN4CCN(C)CC4)cc3OC)(N3CCC[C@H]3c3ncco3)c3cc(Cl)c(F)cc32)cc1 (stereo partly drawn) [Example 201, 5-Chloro-6-fluoro-1-(4-methoxybenzenesulfonyl)-3-[2-methoxy-4-(4-methylpiperazin-1-ylmethyl)phenyl]-3-((S)-2-oxazol-2-yl-pyrrolidin-1-yl)-1,3-dihydroindol-2-one]	< 10
CCOc1ccc(CN2CCN(C)CC2)cc1C1(N2CCC[C@H]2c2ncco2)C(=O)N(S(=O)(=O)c2ccc(OC)cc2)c2ccc(Cl)cc21 (stereo partly drawn) [Example 202, 5-Chloro-3-[2-ethoxy-5-(4-methylpiperazin-1-ylmethyl)phenyl]-1-(4-methoxybenzenesulfonyl)-3-((S)-2-oxazol-2-yl-pyrrolidin-1-yl)-1,3-dihydroindol-2-one]	10 to 100
CCOc1ccc(CNC)cc1C1(N2CCC[C@H]2c2ncco2)C(=O)N(S(=O)(=O)c2ccc(OC)cc2)c2ccc(Cl)cc21 (stereo partly drawn) [Example 203, 5-Chloro-3-(2-ethoxy-5-methylaminomethylphenyl)-1-(4-methoxybenzenesulfonyl)-3-((S)-2-oxazol-2-yl-pyrrolidin-1-yl)-1,3-dihydroindol-2-one]	10 to 100
CCOc1ccc(CN(C)C)cc1C1(N2CCC[C@H]2c2ncco2)C(=O)N(S(=O)(=O)c2ccc(OC)cc2)c2ccc(Cl)cc21 (stereo partly drawn) [Example 204, 5-Chloro-3-(5-dimethylaminomethyl-2-ethoxyphenyl)-1-(4-methoxybenzenesulfonyl)-3-((S)-2-oxazol-2-yl-pyrrolidin-1-yl)-1,3-dihydroindol-2-one]	10 to 100
CCOc1ccc(CNC(C)C)cc1C1(N2CCC[C@H]2c2ncco2)C(=O)N(S(=O)(=O)c2ccc(OC)cc2)c2ccc(Cl)cc21 (stereo partly drawn) [Example 205, 5-Chloro-3-[2-ethoxy-5-(isopropylaminomethyl)phenyl]-1-(4-methoxybenzenesulfonyl)-3-((S)-2-oxazol-2-yl-pyrrolidin-1-yl)-1,3-dihydroindol-2-one]	10 to 100
CCNCc1ccc(OCC)c(C2(N3CCC[C@H]3c3ncco3)C(=O)N(S(=O)(=O)c3ccc(OC)cc3)c3ccc(Cl)cc32)c1 (stereo partly drawn) [Example 206, 5-Chloro-3-(2-ethoxy-5-ethylaminomethylphenyl)-1-(4-methoxybenzenesulfonyl)-3-((S)-2-oxazol-2-yl-pyrrolidin-1-yl)-1,3-dihydroindol-2-one]	10 to 100
COc1ccc(S(=O)(=O)N2C(=O)C(c3cc(CN4CCN(C)CC4)ccc3OC)(N3CCC[C@H]3c3ncon3)c3cc(Cl)ccc32)cc1 (stereo partly drawn) [Example 207, 5-Chloro-1-(4-methoxybenzenesulfonyl)-3-[2-methoxy-5-(4-methylpiperazin-1-ylmethyl)phenyl]-3-((S)-2-[1,2,4]oxadiazol-3-yl-pyrrolidin-1-yl)-1,3-dihydroindol-2-one]	< 10
COc1ccc(S(=O)(=O)N2C(=O)C(c3cc(CN4CCNCC4)ccc3OC)(N3CCC[C@H]3c3ncon3)c3cc(Cl)ccc32)cc1 (stereo partly drawn) [Example 208, 5-Chloro-1-(4-methoxybenzenesulfonyl)-3-(2-methoxy-5-piperazin-1-ylmethylphenyl)-3-((S)-2-[1,2,4]oxadiazol-3-yl-pyrrolidin-1-yl)-1,3-dihydroindol-2-one]	10 to 100
COc1ccc(S(=O)(=O)N2C(=O)C(c3cc(CN(C)C)ccc3OC)(N3CCC[C@H]3c3ncon3)c3cc(Cl)ccc32)cc1 (stereo partly drawn) [Example 209, 5-Chloro-3-(5-dimethylaminomethyl-2-methoxyphenyl)-1-(4-methoxybenzenesulfonyl)-3-((S)-2-[1,2,4]oxadiazol-3-yl-pyrrolidin-1-yl)-1,3-dihydroindol-2-one]	< 10
COc1ccc(S(=O)(=O)N2C(=O)C(c3cc(CN4CCCC4)ccc3OC)(N3CCC[C@H]3c3ncon3)c3cc(Cl)ccc32)cc1 (stereo partly drawn) [Example 210, 5-Chloro-1-(4-methoxybenzenesulfonyl)-3-(2-methoxy-5-pyrrolidin-1-ylmethylphenyl)-3-((S)-2-[1,2,4]oxadiazol-3-yl-pyrrolidin-1-yl)-1,3-dihydroindol-2-one]	< 10
COc1ccc(S(=O)(=O)N2C(=O)C(c3ccc(CN4CCNCC4)cc3OC)(N3CCC[C@H]3c3ncco3)c3cc(Cl)c(F)cc32)cc1 (stereo partly drawn) [Example 211, 5-Chloro-6-fluoro-1-(4-methoxybenzenesulfonyl)-3-(2-methoxy-4-piperazin-1-ylmethylphenyl)-3-((S)-2-oxazol-2-yl-pyrrolidin-1-yl)-1,3-dihydroindol-2-one]	< 10
COc1ccc(S(=O)(=O)N2C(=O)C(c3ccc(CN4CCN(CCO)CC4)cc3OC)(N3CCC[C@H]3c3ncco3)c3cc(Cl)c(F)cc32)cc1 (stereo partly drawn) [Example 212, 5-Chloro-6-fluoro-3-{4-[4-(2-hydroxyethyl)piperazin-1-ylmethyl]-2-methoxyphenyl}-1-(4-methoxybenzenesulfonyl)-3-((S)-2-oxazol-2-yl-pyrrolidin-1-yl)-1,3-dihydroindol-2-one]	< 10
COc1ccc(S(=O)(=O)N2C(=O)C(c3cc(CN4CCCC4)ccc3OC)(N3C[C@H](OC(C)(C)C)C[C@H]3c3ncco3)c3cc(Cl)ccc32)cc1 (stereo partly drawn) [Example 213, 3-((2S,4R)-4-tert-butoxy-2-oxazol-2-yl-pyrrolidin-1-yl)-5-chloro-1-(4-methoxybenzenesulfonyl)-3-(2-methoxy-5-pyrrolidin-1-ylmethylphenyl)-1,3-dihydroindol-2-one]	10 to 100
COc1ccc(S(=O)(=O)N2C(=O)C(c3cc(CN4CCN(C)CC4)ccc3OC)(N3C[C@H](OC(C)(C)C)C[C@H]3c3ncco3)c3cc(Cl)ccc32)cc1 (stereo partly drawn) [Example 214, 3-((2S,4R)-4-tert-butoxy-2-oxazol-2-yl-pyrrolidin-1-yl)-5-chloro-1-(4-methoxybenzenesulfonyl)-3-[2-methoxy-5-(4-methylpiperazin-1-ylmethyl)phenyl]-1,3-dihydroindol-2-one]	< 10
COc1ccc(S(=O)(=O)N2C(=O)C(c3cc(CN4CCN(CCO)CC4)ccc3OC)(N3C[C@H](OC(C)(C)C)C[C@H]3c3ncco3)c3cc(Cl)ccc32)cc1 (stereo partly drawn) [Example 215, 5-Chloro-3-((2S,4R)-4-tert-butoxy-2-oxazol-2-yl-pyrrolidin-1-yl)-3-{5-[4-(2-hydroxyethyl)piperazin-1-ylmethyl]-2-methoxyphenyl}-1-(4-methoxybenzenesulfonyl)-1,3-dihydroindol-2-one]	10 to 100
